Residues, ends and D or L forms follow the SMILES beside them.
Tested on: rat proximal duodenum
Experiment: acid disposal capacity of the rat proximal duodenum (anti-ulcer activity)
Assay type: in vivo
Conditions: anaesthetized male Wistar rats; input pH 2.5, second pass; 150nmol/kg/h i.v. infusion; significance P<0.05
Protocol: Method for estimating the acid disposal capacity of the rat proximal duodenum
Male Wistar rats, 180-250g bodyweight, fasted overnight, are anaesthetized with urethane (150mg/100g bodyweight i.m.). The trachea is cannulated, and a gastric cannula, 0.5cm i.d., 3cm long, is inserted into the non-glandular forestomach via a mid-line abdominal incision. The intragastric cannula is exteriorized via a stab wound in the body wall. A triple lumen catheter, 0.3cm o.d., is passed via the gastric cannula through the pylorus. The duodenum is ligated 1cm below the pylorus, and the pylorus ligated around the cannula, thus creating a 1cm proximal duodenal pouch excluding pancreatic and biliary secretions. The two ligatures enclosing the duodenal pouch are placed so as to avoid occluding the blood supply to the duodenal segment. Gastric secretions are allowed to drain freely from the gastric cannula. Compounds are administered dissolved in 0.9% sodium chloride (saline) as a 1.2 ml/h infusion via a catheter inserted in a jugular vein.
The triple lumen catheter is connected as follows. […]
Lumen 2 collects the perfusate and delivers it to a flow cell containing a pH microelectrode. Outflow pH is recorded throughout the experiment. […]
A group size of 6 animals or larger is used and the effect of compounds on the output pH compared to control data determined. […]

**Q.** Which “acid disposal (output pH compared to control)” value does the source give for CC(C)C[C@H](NC(=O)[C@H](Cc1ccc(O)cc1)NC(=O)[C@H](CCCCN)NC(=O)[C@H](CCCCN)NC(=O)[C@@H](NC(=O)[C@H](C)N)C(C)C)C(N)=O [Example 1, H-Ala-Val-Lys-Lys-Tyr-Leu-NH2] (H-AVKKYL-NH2) here?
**A.** significant increase in acid disposal

From patent publication US4866039A, “Peptides containing the 18 to 23 residues of vasoactive intestinal peptide, and analogues” (Beecham Group p.l.c., priority 1985, dated 1989)
